Source: patent US9382306B2, “Octapeptide compounds derived from somatostatin and the therapeutic use thereof” (IPSEN PHARMA S.A.S., priority 2008, dated 2016)
Bridge positions count the residues as written; N and C are the ends. Square brackets hold non-standard residues; d marks the D form. Peptide text beside a SMILES is read from it. ξ: configuration not given here. d2Nal = N[C@H](Cc1ccc2ccccc2c1)C(=O)O; Thr(3ξ) = CC(O)[C@H](N)C(=O)O

Experiment: Static release test in PBS
Type: physicochemical
Details: 75 mM starting concentration, PBS pH 7.4, 37° C., % of free compound
Description: Release studies can be carried out on the octapeptide compounds according to the invention in the form of gel, solid, or in suspension. Two types of tests can be envisaged: static release tests and/or dynamic tests, both are briefly described hereafter.
The experimental parameters are common to both types of tests. The release medium is a liquid medium which is physico-chemically well-controlled, preferably a PBS (phosphate buffer saline) buffer adjusted to pH 7.4 and maintained at 37° C. The release curve is defined as the concentration of the studied compound in the dissolution medium (expressed in % of free compound) as a function of time (minutes, hours, days). To initiate the tests, a know quantity of sample is placed in the dissolution medium at time 0 (t=0 min/h/d), the sample being optionally conditioned in a device which is suited to its initial physical state (gel, solid, suspension). Measurements of the concentration of the compound in the release medium are carried out by one or more analytical methods which are well known in the state of the art such as UV-visible spectrophotometry or the HPLC (High Performance Liquid Chromatography). The parameters of the analytical methods are adjusted as a function of the physico-chemical characteristics of the compounds. […]

Row | Structure (SMILES) | Static release after 48 h
1 | CC(C)[C@@H]1NC(=O)[C@H](CCCCN)NC(=O)[C@@H](C)NC(=O)[C@H](Cc2ccc(O)cc2)NC(=O)[C@@H](NC(=O)[C@H](N)Cc2ccc3ccccc3c2)CSSC[C@@H](C(=O)N[C@H](C(N)=O)C(C)O)NC1=O (stereo partly drawn) [Example 4, H-D-2-Nal^1-cyclo(Cys^2Tyr^3-D-Ala^4-Lys^5-Val^6Cys^7)-Thr^8-NH2.2 CH3COOH] (H-[d2Nal]CY[dA]KVC[Thr(3ξ)]-NH2; disulfide 2-7) | 85%
2 | CC(C)[C@@H]1NC(=O)[C@H](CCCCN)NC(=O)[C@@H](Cc2cccc3ccccc23)NC(=O)[C@H](Cc2ccc(O)cc2)NC(=O)[C@@H](NC(=O)[C@H](N)Cc2ccc3ccccc3c2)CSSC[C@@H](C(=O)N[C@H](C(N)=O)C(C)O)NC1=O (stereo partly drawn) [Example 6, H-D-2-Nal^1-cyclo(Cys^2Tyr^3-13-(1-naphthyl)-D-Ala^4-Lys^5-Val^6-Cys^7)-Thr^8-NH2.2 CH3COOH] | 25%
